The values that follow come from patent US6171808A, “Mutant luciferases” (priority 1995, dated 2001).

Assay [1] addresses Photinus pyralis luciferase variant 601aK, E354K (thermostable mutant 354 lysine) (Photinus pyralis, UniProt P08659, E354K). Particulars: read-out: Km value with respect to ATP; 21° C., tricine pH7.8, 470 μM D-luciferin, 6.25 to 400 μM ATP.
In assay [2] the target is T1, Photinus pyralis luciferase variant 601aG1, E270K (270 lysine Km change), SEQ ID No 2 with Xaa = lysine (Photinus pyralis, UniProt P08659, E270K).
T1 construct: made in house; host or cells: E. coli BL21 (DE3) (pPW601G1)
T1 sequence (P08659 whole entry E270K): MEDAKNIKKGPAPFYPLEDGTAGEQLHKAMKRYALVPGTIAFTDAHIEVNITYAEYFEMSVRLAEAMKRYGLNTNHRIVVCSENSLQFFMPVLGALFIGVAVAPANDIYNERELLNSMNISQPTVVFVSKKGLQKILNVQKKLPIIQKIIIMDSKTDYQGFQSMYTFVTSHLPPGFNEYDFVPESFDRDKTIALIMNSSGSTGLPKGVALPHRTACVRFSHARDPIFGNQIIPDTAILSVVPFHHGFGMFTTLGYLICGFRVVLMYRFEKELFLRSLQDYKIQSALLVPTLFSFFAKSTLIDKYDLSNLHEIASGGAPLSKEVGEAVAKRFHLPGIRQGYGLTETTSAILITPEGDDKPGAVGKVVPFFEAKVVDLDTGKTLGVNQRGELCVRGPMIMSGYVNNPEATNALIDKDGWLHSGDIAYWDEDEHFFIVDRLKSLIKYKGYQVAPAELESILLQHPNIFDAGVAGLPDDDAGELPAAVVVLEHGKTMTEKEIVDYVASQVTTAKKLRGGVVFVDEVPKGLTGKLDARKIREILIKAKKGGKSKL
The assay can be described thus: Km determination with respect to ATP, luminometric luciferase assay. It is filed as biochemical. The note with it: read-out: Km value with respect to ATP; 21° C., tricine pH7.8, 470 μM D-luciferin, 6.25 to 400 μM ATP. From the text:
The Km mutant was initially generated by hydroxylamine induced mutagenesis of the luc gene within pPW304 to provide plasmid 304 G1 bearing a single base change in the DNA sequence at 811 of SEQ ID No 1 resulting in an amino acid glutamate change to lysine at position 270. A 1.1 kb DNA fragment (BstE II/Stu I) was cloned from pPW304 and used to replace the corresponding fragment in pP601a to form pPW601G1, thus providing a luc gene encoding for luciferase without the four extra amino acids encoded by pPW304 (M not included from M-A-R-I-Q).

Assay [3] addresses T2, Photinus pyralis luciferase double mutant 601aG1K, E270K + E354K, SEQ ID No 4 (Photinus pyralis, UniProt P08659, E270K/E354K).
T2 construct: made in house; host or cells: E. coli JM109 (pPW601aG1K, pDR540-derived)
The description is as above. Particulars: read-out: Km value with respect to ATP; 21° C., tricine pH7.8, 470 μM D-luciferin, 6.25 to 400 μM ATP. Format: biochemical.

Assay [4] has as its target T3, Photinus pyralis luciferase, recombinant wild-type (601a) (Photinus pyralis, UniProt P08659).
T3 construct: made in house; host or cells: E. coli JM109 (pPW601a, derived from pDR540 and the luc gene of pGEM-luc)
Described as above. It is filed as biochemical. The note with it: 21° C., tricine pH7.8, 470 μM D-luciferin, 6.25 to 400 μM ATP.

Sequence of Photinus pyralis luciferase variant 601aK, E354K (thermostable mutant 354 lysine) (P08659 whole entry E354K): as the sequence (P08659 whole entry E270K) above, with K270E, E354K counted along it
T2 sequence (P08659 whole entry E270K/E354K): as the sequence (P08659 whole entry E270K) above, with E354K counted along it
T3 sequence (P08659 whole entry): as the sequence (P08659 whole entry E270K) above, with K270E counted along it

By Km is commonly meant the substrate concentration at which the rate is half of its maximum. Turning to `Nc1ncnc2c1ncn2[C@@H]1O[C@H](COP(=O)(O)OP(=O)(O)OP(=O)(O)O)[C@@H](O)[C@H]1O` [ATP, adenosine triphosphate], the Km stood at 61.3 µM in assay [1], 28.7 µM in assay [2], 25.2 µM in assay [3] and 66.1 µM in assay [4].
